In article PMC5647378, “Structural and Mechanistic Analysis of Drosophila melanogaster Agmatine N-Acetyltransferase, an Enzyme that Catalyzes the Formation of N-Acetylagmatine” (Scientific Reports, 2017):
Changes are numbered by the printed parent chain. “And” between values parts separate entries of the source, which are not always exact repeats. Equal values may be shown once. Read-outs that look alike come from different tables or passages of the source.

Tests used:
[1] = molecular target: T1, AgmNAT P35A mutant (Drosophila melanogaster, UniProt Q9W469, P35A); assay: Steady-state kinetics of AgmNAT site-directed mutant P35A; type: biochemical
T1 sequence (Q9W469 1-216 P35A): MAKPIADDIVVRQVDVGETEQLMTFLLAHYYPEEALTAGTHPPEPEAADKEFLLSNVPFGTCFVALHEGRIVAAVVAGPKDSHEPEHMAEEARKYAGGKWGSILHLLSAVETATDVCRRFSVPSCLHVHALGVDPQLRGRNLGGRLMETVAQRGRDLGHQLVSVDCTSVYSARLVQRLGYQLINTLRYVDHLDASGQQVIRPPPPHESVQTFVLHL
Protocol: (§1) Site-directed mutants of AgmNAT were constructed by the overlap extension method. Using the primers shown in Table S1, each mutant was amplified using pfuUltra High-Fidelity DNA polymerase with the following PCR conditions: initial denaturing step of 95 °C for 2 min, then 30 cycles of 95 °C for 30 s; 60 °C annealing temperature for 30 s; 72 °C extension step for 1 min; then a final extension step of 72 °C for 10 min. Following the amplification of the AgmNAT site-directed mutant, the sub-cloning, expression, and purification procedures are the same as discussed for the wild-type enzyme.
Steady-state kinetic constants for AgmNAT were determined by measuring the rate of coenzyme A release using Ellman’s reagent (DTNB) at 412 nm (molar absorptivity = 13,600 M^−1 cm^−1)[15]–[17]. […] Initial velocities were measured using a Cary 300 Bio UV-Visible spectrophotometer at 22 °C. Acyl-CoA kinetic constants were evaluated by holding the concentration of agmatine at a constant saturating concentration (5 mM). […] The apparent kinetic constants were determined by fitting the resulting data to equation 1 using SigmaPlot 12.0, where vo is the initial velocity, Vmax,app is the apparent maximal velocity, [S] is the substrate concentration, and Km,app is the apparent Michaelis constant. […]

[2] = molecular target: T2, AgmNAT E34A mutant (Drosophila melanogaster, UniProt Q9W469, E34A); assay: Steady-state kinetics of AgmNAT site-directed mutant E34A; type: biochemical; conditions: for (kcat/Km)app–mutant/(kcat/Km)app–wild–type×100: E34A
T2 sequence (Q9W469 1-216 E34A): T1 sequence (Q9W469 1-216 P35A) with E34A, A35P
Protocol: as §1
(§2) Steady-state kinetic constants for AgmNAT were determined by measuring the rate of coenzyme A release using Ellman’s reagent (DTNB) at 412 nm (molar absorptivity = 13,600 M^−1 cm^−1)[15]–[17]. […] Initial velocities were measured using a Cary 300 Bio UV-Visible spectrophotometer at 22 °C. Acyl-CoA kinetic constants were evaluated by holding the concentration of agmatine at a constant saturating concentration (5 mM). […] The apparent kinetic constants were determined by fitting the resulting data to equation 1 using SigmaPlot 12.0, where vo is the initial velocity, Vmax,app is the apparent maximal velocity, [S] is the substrate concentration, and Km,app is the apparent Michaelis constant. Each assay was performed in triplicate and the uncertainty for the kcat,app and (kcat/Km)app values were calculated using equation 2, where σ is the standard error.1 vo=Vmax,app[S]/Km,app+[S] 2 σ(x/y)=x/y(σx/x)^2+(σy/y)^2

[3] = molecular target: T3, Drosophila melanogaster AgmNAT (CG15766), wild-type (Drosophila melanogaster, UniProt Q9W469); assay: AgmNAT steady-state kinetics, coenzyme A release with Ellman's reagent (DTNB); type: biochemical
Protocol: as §2

[4] = molecular target: T4, AgmNAT H206A mutant (Drosophila melanogaster, UniProt Q9W469, H206A); assay: Steady-state kinetics of AgmNAT site-directed mutant H206A; type: biochemical; conditions: for increase of Km,app versus wild-type: H206A mutant; for (kcat/Km)app–mutant/(kcat/Km)app–wild–type×100: H206A
T4 sequence (Q9W469 1-216 H206A): T1 sequence (Q9W469 1-216 P35A) with A35P, H206A
Protocol: as §1, §2

[5] = molecular target: T5, AgmNAT S171A mutant (Drosophila melanogaster, UniProt Q9W469, S171A); assay: Steady-state kinetics of AgmNAT site-directed mutant S171A; type: biochemical; conditions: for (kcat/Km)app–mutant/(kcat/Km)app–wild–type×100: S171A
T5 sequence (Q9W469 1-216 S171A): T1 sequence (Q9W469 1-216 P35A) with A35P, S171A
Protocol: as §1, §2

[6] = molecular target: T3, Drosophila melanogaster AgmNAT (CG15766), wild-type; assay: AgmNAT dead-end and product inhibition analysis; type: biochemical
Protocol: Initial velocities were determined by varying the concentration of one substrate, while holding the other substrate at a fixed concentration. […] The resulting initial velocity data was fit to equation 3 for an ordered Bi-Bi mechanism and equation 4 for a ping pong mechanism using IGOR Pro 6.34 A, where vo is the initial velocity, Vmax is the maximal velocity, Kia is the dissociation constant for substrate A, Kb is the Michaelis constant for substrate B, Ka is the Michaelis constant for substrate A, [A] is the concentration of substrate A, and [B] is the concentration of substrate B.3 vo=Vmax[A][B]/KiaKb+Ka[B]+Kb[A]+[A][B] 4 vo=Vmax[A][B]/Ka[B]+Kb[A]+[A][B]
Inhibition experiments by either substrate analogs or N-acetylagamatine were used to discriminate between an ordered, random sequential, or ping pong kinetic mechanism. […] Initial velocity patterns were generated by varying the concentration of one substrate, holding the other substrate concentration at its apparent Km, and changing the concentration of inhibitor for each data set in triplicate. The resulting data was fit to equations 5–7, for competitive, noncompetitive, and uncompetitive inhibition respectively using SigmaPlot 12.0. For […], vo is the initial velocity, Vmax,app is the apparent maximal velocity, Km,app is the apparent Michaelis constant, [S] is the substrate concentration, [I] is the inhibitor concentration, and Ki is the inhibition constant.5 vo=Vmax,app[S]/Km,app(1+[I]/Ki)+[S] 6 vo=Vmax,app[S]/Km,app(1+[I]/Ki)+[S](1+[I]/Ki) 7 vo=Vmax,app[S]/Km,app+[S](1+[I]/Ki)

[7] = molecular target: T3, Drosophila melanogaster AgmNAT (CG15766), wild-type; assay: AgmNAT dead-end and product inhibition analysis; type: biochemical; conditions: inhibitor at 10 mM
[8] = molecular target: Glu34 (UniProt position 34, HYYPEEPLTAG); assay: kinetics; conditions: 22 °C; MES (pH 6.5 and 7.0), Tris (pH 7.0-9.0), AmeP (pH 9.0 and 9.5). Concentrations for the pH series not stated (standard assay is 300 mM Tris with 150 µM DTNB).; Steady-state turnover; acetyl-CoA varied, agmatine as co-substrate (5 mM saturating in the standard assay); wild-type enzyme, triplicate

T3 sequence (Q9W469 entry or part of it): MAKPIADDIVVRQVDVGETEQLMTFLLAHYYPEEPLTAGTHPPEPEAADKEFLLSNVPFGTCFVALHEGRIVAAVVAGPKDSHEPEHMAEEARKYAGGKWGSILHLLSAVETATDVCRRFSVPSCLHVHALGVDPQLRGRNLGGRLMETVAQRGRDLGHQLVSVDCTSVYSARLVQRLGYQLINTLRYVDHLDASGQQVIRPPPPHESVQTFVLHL

CC(=O)SCCNC(=O)CCNC(=O)[C@H](O)C(C)(C)COP(=O)(O)OP(=O)(O)OC[C@H]1O[C@@H](n2cnc3c(N)ncnc32)[C@H](O)[C@@H]1OP(=O)(O)O [Acetyl-CoA]
(kcat/Km)app–mutant/(kcat/Km)app–wild–type×100 ([1]; acetyl-CoA varied): 0.86% | decrease of Km,app versus wildtype ([2]; E34A mutant, acetyl-CoA): 6 fold | (kcat/Km)app–mutant/(kcat/Km)app–wild–type×100 ([2]; acetyl-CoA varied): 0.27% | (kcat/Km)app–mutant/(kcat/Km)app–wild–type×100 ([3]; Wild-type, acetyl-CoA varied): 100% | kcat,app ([3]; Wild-type, acetyl-CoA varied, saturating agmatine, pH 8.5): 23 ± 1 s⁻¹ | kcat,app ([3]; acyl-CoA varied, 5 mM agmatine, 300 mM Tris-HCl pH 8.5, 150 µM DTNB): 23 ± 1 s⁻¹ | Km ([3]; acyl-CoA varied, 5 mM agmatine, 300 mM Tris-HCl pH 8.5, 150 µM DTNB, read-out: Km,app): 100 µM | increase of Km,app versus wild-type ([4]; acetyl-CoA): 2.3 fold | (kcat/Km)app–mutant/(kcat/Km)app–wild–type×100 ([4]; acetyl-CoA varied): 2.3% | change (decrease) of Km,app versus wildtype ([5]; S171A mutant, acetyl-CoA): 3- to 4 fold | (kcat/Km)app–mutant/(kcat/Km)app–wild–type×100 ([5]; acetyl-CoA varied): 34%

NCCCCN=C(N)N [Agmatine, (4-aminobutyl)guanidine]
(kcat/Km)app–mutant/(kcat/Km)app–wild–type×100 ([1]; agmatine varied): 3.2% | increase of Km,app versus wildtype ([2]; E34A mutant, agmatine): 20 fold | (kcat/Km)app–mutant/(kcat/Km)app–wild–type×100 ([2]; agmatine varied): 0.0038% | (kcat/Km)app–mutant/(kcat/Km)app–wild–type×100 ([3]; Wild-type, agmatine varied): 100% | increase of Km,app versus wild-type ([4]; agmatine): 1.4 fold | (kcat/Km)app–mutant/(kcat/Km)app–wild–type×100 ([4]; agmatine varied): 4.7% | change (increase) of Km,app versus wildtype ([5]; S171A mutant, agmatine): 3- to 4 fold | (kcat/Km)app–mutant/(kcat/Km)app–wild–type×100 ([5]; agmatine varied): 2.7%

COC(=O)[C@@H](N)CCCN=C(N)N [Arginine methyl ester, L-arginine methyl ester]
acceptance as amine substrate ([3]; amine substrate screen with acetyl-CoA): not AgmNAT substrates | Ki ([6]; varied substrate acetyl-CoA, constant agmatine (0.3 mM), listed as arginine methyl ester, read-out: Ki,i): ≥ 1000 µM | Ki ([6]; varied substrate acetyl-CoA, constant agmatine (0.3 mM), read-out: Ki,i): 2900 ± 100 µM | Ki ([6]; varied substrate agmatine, constant acetyl-CoA (0.1 mM; 104 µM), listed as arginine methyl ester, read-out: Ki,s): ≥ 1000 µM | Ki ([6]; varied substrate agmatine, constant acetyl-CoA (0.1 mM; 104 µM), read-out: Ki,s): 1500 ± 100 µM | type of inhibition plot (in words) ([6]; versus acetyl-CoA): uncompetitive | type of inhibition plot (in words) ([6]; versus agmatine): competitive | decrease of the rate of N-acetylagmatine formation from acetyl-CoA and agmatine [7]: ~ 50%

Agmatine N-acetyltransferase (AgmNAT; formerly arylalkylamine N-acetyltransferase-like 8, AANATL8) (Drosophila melanogaster)
pKa [8]: 7.7 ± 0.1 and 7.3 ± 0.2 and ~7.5
